Test systems include HCC 2998; SN12C; SF-539; MDA-MB-231; HCT-15; MCF7; LOX IMVI; HOP-92; COLO 205; RPMI-8226; KM12; DU-145; ACHN; UO-31; EKVX; SW-620; OVCAR-5; NCI-H460; SF-268.
Holding throughout (assay): DTP human tumour cell line panel, 48 h

The structures appear in SMILES notation.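 Exposure lasted 48 hours, with cells grown in 96-well plates and compounds tested at five concentrations. At the GI50, growth is halved.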 Activity calls are given as the source filed them. No stated cut-off is given here; in the data, active = GI50 up to about 1.1 µM and inactive = higher. A value given as a limit tells only on which side of the number the result lay.

In the case of `COc1ccc(Nc2c[nH]c(=O)[nH]c2=O)cc1`, the GI50 (commonly the concentration that inhibits growth by half) is > 100 µM (inactive) in the test with HCC 2998; > 100 µM (inactive) in the test on SN12C; > 100 µM (inactive) in the test with SF-539; > 100 µM (inactive) in the test with MDA-MB-231; over 100 µM in the test with HCT-15; > 100 µM (inactive) in the test with MCF7. In addition, the GI50 with LOX IMVI, in the test on HOP-92, with COLO 205, with RPMI-8226, with KM12 and in the test on DU-145 was > 100 µM (inactive) each time. For the same compound, the GI50 in the test with ACHN, in the test on UO-31, with EKVX and in the test with SW-620 was > 100 µM (inactive) each time.

For the compound `COCOc1c(C(OCOC)c2cnc(Sc3ccccc3)n2C)ccc(OC)c1OC` (centres undefined), the GI50 in the test on HCC 2998 was > 100 µM (inactive); in the test on OVCAR-5 it was > 100 µM (inactive); in the test on SN12C it was > 100 µM (inactive); in the test on SF-539, > 100 µM (inactive); in the test with MDA-MB-231, > 100 µM (inactive); in the test with HCT-15 it was over 100 µM. In addition, the GI50 with MCF7 is > 100 µM (inactive); in the test on NCI-H460, > 100 µM (inactive); in the test with LOX IMVI it was > 100 µM (inactive); in the test with HOP-92 it was > 100 µM (inactive); in the test on RPMI-8226, 65 µM (inactive); in the test with KM12 it was > 100 µM (inactive). Besides, the GI50 in the test on SF-268 is > 100 µM (inactive); with DU-145, > 100 µM (inactive); with ACHN, > 100 µM (inactive); in the test with UO-31 it was 73.6 µM (inactive); in the test with EKVX, > 100 µM (inactive); in the test with SW-620 it was > 100 µM (inactive).

For `CC(=O)OCC1OC(n2c(C)cc(C)c(C#N)c2=S)C(OC(C)=O)C(OC(C)=O)C1OC(C)=O` (centres undefined), the GI50 is > 100 µM (inactive) with HCC 2998; > 100 µM (inactive) with OVCAR-5; > 100 µM (inactive) in the test on SN12C; > 100 µM (inactive) with SF-539; > 100 µM (inactive) in the test with MDA-MB-231; over 100 µM in the test with HCT-15. Moreover, the GI50 with MCF7, in the test with NCI-H460, in the test on LOX IMVI, in the test with HOP-92, with COLO 205 and in the test with RPMI-8226 was > 100 µM (inactive) each time. The GI50 with KM12, in the test on SF-268, in the test on DU-145, in the test on ACHN and in the test with UO-31 was > 100 µM (inactive) throughout.

`O=C1/C(=C/c2ccccc2O)N=C(c2ccccc2)N1C1Nc2cc3c(cc2S1)NC(N1C(=O)/C(=C/c2ccccc2O)N=C1c1ccccc1)S3` (centres undefined): the GI50 in the test with HCC 2998 was 33.6 µM (inactive); with OVCAR-5, > 100 µM (inactive); in the test with SF-539, 36.1 µM (inactive); in the test on MDA-MB-231, 32.7 µM (inactive); in the test on HCT-15, 13.5 µM; with MCF7, 2.13 µM (inactive). Moreover, the GI50 in the test with NCI-H460 is 12.5 µM (inactive); in the test with LOX IMVI, 42.2 µM (inactive); with HOP-92 it was 0.489 µM (active); in the test on RPMI-8226, 26.1 µM (inactive); with KM12, 41.3 µM (inactive); in the test with SF-268, 16.6 µM (inactive). The GI50 in the test with DU-145 is 42.8 µM (inactive); in the test with ACHN, 21.7 µM (inactive); in the test on UO-31, 23 µM (inactive); in the test with EKVX, 46.7 µM (inactive); with SW-620, 36.3 µM (inactive).

For `O=C(N(C1=CCCC1)N(c1ccccc1)c1ccccc1)C(F)(F)F`, the GI50 in the test with HCC 2998 was 18.2 µM (inactive); with OVCAR-5 it was 27 µM (inactive); in the test with SN12C, 26.9 µM (inactive); in the test with SF-539, 20.2 µM (inactive); with MDA-MB-231 it was 16.9 µM (inactive); in the test with HCT-15 it was 21.4 µM. The GI50 was 19.7 µM (inactive) in the test on MCF7; 17.5 µM (inactive) with NCI-H460; 15.8 µM (inactive) in the test with LOX IMVI; 10.5 µM (inactive) in the test on HOP-92; 18.6 µM (inactive) with COLO 205; 18.1 µM (inactive) in the test on KM12. In addition, the GI50 was 16.7 µM (inactive) with SF-268; 30.8 µM (inactive) in the test with DU-145; 17.3 µM (inactive) in the test on ACHN; 31.6 µM (inactive) with UO-31; 17.5 µM (inactive) in the test on EKVX; 20.2 µM (inactive) in the test on SW-620.

`CC1C2CC(CC23OCC(CCl)O3)C1(C)C` (centres undefined): the GI50 in the test on HCC 2998 was > 100 µM (inactive); with SN12C, > 100 µM (inactive); in the test with SF-539 it was > 100 µM (inactive); in the test on MDA-MB-231, > 100 µM (inactive); with HCT-15 it was over 100 µM; in the test with MCF7, > 100 µM (inactive). The GI50 with NCI-H460, in the test with LOX IMVI, in the test with HOP-92, with COLO 205, in the test with RPMI-8226 and in the test with KM12 was > 100 µM (inactive) in each case. The GI50 in the test with SF-268, in the test on DU-145, in the test on ACHN, with UO-31, with EKVX and in the test with SW-620 was > 100 µM (inactive) in each case.

Regarding `FC(F)(F)c1cccnc1Sc1nc2ccccc2s1`, the GI50 in the test on HCC 2998 is > 100 µM (inactive); in the test on OVCAR-5 it was 34.1 µM (inactive); in the test on SN12C it was > 100 µM (inactive); in the test with SF-539, > 100 µM (inactive); in the test with MDA-MB-231 it was 63.8 µM (inactive); in the test with HCT-15, over 100 µM. Besides, the GI50 was > 100 µM (inactive) in the test on MCF7; > 100 µM (inactive) with NCI-H460; 16.3 µM (inactive) in the test on HOP-92; > 100 µM (inactive) with COLO 205; 45.8 µM (inactive) in the test on RPMI-8226; > 100 µM (inactive) with KM12. Also, the GI50 is > 100 µM (inactive) in the test on SF-268; > 100 µM (inactive) with DU-145; > 100 µM (inactive) in the test on ACHN; 32.1 µM (inactive) in the test with UO-31; 63 µM (inactive) in the test on EKVX; > 100 µM (inactive) in the test with SW-620.

In the case of `Cc1ccc(/C=C2\CCCC(CN(C)C)C2=O)cc1` (centres undefined), the GI50 with HCC 2998 is 14.2 µM (inactive); with OVCAR-5, 15.8 µM (inactive); in the test with SN12C, 1.91 µM (inactive); in the test on SF-539, 2.84 µM (inactive); in the test on MDA-MB-231, 1.66 µM (inactive); with HCT-15, 1.97 µM. The GI50 with MCF7 was 0.525 µM (active); in the test on NCI-H460, 3.48 µM (inactive); in the test on LOX IMVI it was 1.77 µM (inactive); in the test on HOP-92, 1.88 µM (inactive); in the test on COLO 205, 1.73 µM (inactive); in the test on KM12, 1.55 µM (inactive). Further, the GI50 in the test with SF-268 is 2.06 µM (inactive); with DU-145 it was 10.2 µM (inactive); in the test with ACHN it was 2.24 µM (inactive); in the test on UO-31 it was 1.69 µM (inactive); in the test with EKVX it was 17.5 µM (inactive); with SW-620, 1.53 µM (inactive).

`CC(=O)C1=C(c2ccccc2)N(C2OC(CO)C(O)C(O)C2O)C(S)=C(C#N)C1c1ccc(Cl)cc1` (centres undefined): the GI50 with HCC 2998 is 17.7 µM (inactive); in the test on OVCAR-5, 62.2 µM (inactive); in the test with SN12C, 38.5 µM (inactive); with SF-539, 18.2 µM (inactive); with MDA-MB-231 it was 28.1 µM (inactive); in the test on HCT-15 it was 23 µM. Also, the GI50 in the test with MCF7 was 20.1 µM (inactive); in the test with NCI-H460 it was 21.9 µM (inactive); in the test with LOX IMVI, 18.5 µM (inactive); in the test with HOP-92 it was 19.7 µM (inactive); in the test with COLO 205, 24.7 µM (inactive); with RPMI-8226 it was 29.9 µM (inactive). Moreover, the GI50 was 23.2 µM (inactive) in the test with KM12; 24.8 µM (inactive) in the test on SF-268; 44.8 µM (inactive) in the test on DU-145; 29.7 µM (inactive) with ACHN; 28.8 µM (inactive) in the test with UO-31; 8.53 µM (inactive) in the test with SW-620.

Turning to `CCOC(CN(C)C(=O)Nc1cccc2ccccc12)OCC`, the GI50 with HCC 2998 was > 10 µM (inactive); with SN12C, > 10 µM (inactive); with SF-539, > 10 µM (inactive); with MDA-MB-231, > 10 µM (inactive); with HCT-15 it was over 10 µM; in the test on MCF7, > 10 µM (inactive). The GI50 with NCI-H460, with LOX IMVI, with HOP-92, in the test with COLO 205, in the test on RPMI-8226 and with KM12 was > 10 µM (inactive) each time. Further, the GI50 in the test on SF-268, in the test with DU-145, in the test on ACHN, with UO-31, in the test on EKVX and in the test with SW-620 was > 10 µM (inactive) in each case.

Regarding `CC1(CCCO)CCCCCC(C)(CCCO)C1=O` (centres undefined), the GI50 in the test on HCC 2998 was > 100 µM (inactive); with OVCAR-5, > 100 µM (inactive); in the test on SN12C, > 100 µM (inactive); in the test on MDA-MB-231, > 100 µM (inactive); in the test on HCT-15 it was over 100 µM; with MCF7, 70.6 µM (inactive). Moreover, the GI50 with NCI-H460, in the test with LOX IMVI, in the test on HOP-92, in the test on COLO 205, in the test with RPMI-8226 and in the test with KM12 was > 100 µM (inactive) in each case. For the same compound, the GI50 with SF-268, in the test with DU-145, in the test on ACHN, in the test on UO-31, with EKVX and in the test with SW-620 was > 100 µM (inactive) throughout.

For the origin of these results see ChEMBL document CHEMBL1201862, “PubChem BioAssay data set” (2004).
